From PubChem BioAssay AID264 (DTP/NCI, 2004)
Where “and” joins values, the source holds several entries; their conditions need not be identical. Equal values may be shown once. Results filed as inconclusive are left out.

Tested on: nude mice, LX-1 lung xenograft intrarenal, tumor weight T/C
Assay: NCI In Vivo Anticancer Drug Screen. Data for tumor model Human Lung LX-1 Xenograft (intrarenal inoculation) in NU/NU Swiss (nude) mice
Details: endpoint: mean tumor weight change, higher = larger tumour
Outline: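 Activity was scored by measuring tumors in treated animals and in vehicle controls, then reporting the treated result as a fraction of the control result.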

[1] = dose: 150.0 mg/kg/injection, schedule: Q04DX003 (sc), vehicle: saline with Tween-80
[2] = dose: 300.0 mg/kg/injection, schedule: Q04DX003 (sc), vehicle: saline with Tween-80
[3] = dose: 600.0 mg/kg/injection, schedule: Q04DX003 (sc), vehicle: saline with Tween-80
[4] = dose: 1200.0 mg/kg/injection, schedule: Q04DX003 (sc), vehicle: saline with Tween-80
[5] = dose: 100.0 mg/kg/injection, schedule: Q01DX010 (sc), vehicle: saline with Tween-80
[6] = dose: 200.0 mg/kg/injection, schedule: Q01DX010 (sc), vehicle: saline with Tween-80
[7] = dose: 400.0 mg/kg/injection, schedule: Q01DX010 (sc), vehicle: saline with Tween-80
[8] = dose: 300.0 mg/kg/injection, schedule: Q04DX003 (sc), vehicle: suspension in saline
[9] = dose: 600.0 mg/kg/injection, schedule: Q04DX003 (sc), vehicle: suspension in saline
[10] = dose: 1200.0 mg/kg/injection, schedule: Q04DX003 (sc), vehicle: suspension in saline
[11] = dose: 200.0 mg/kg/injection, schedule: Q04DX003 (sc), vehicle: saline with Tween-80
[12] = dose: 400.0 mg/kg/injection, schedule: Q04DX003 (sc), vehicle: saline with Tween-80
[13] = dose: 800.0 mg/kg/injection, schedule: Q04DX003 (sc), vehicle: saline with Tween-80
[14] = dose: 37.5 mg/kg/injection, schedule: Q04DX003 (sc), vehicle: saline with Tween-80
[15] = dose: 75.0 mg/kg/injection, schedule: Q04DX003 (sc), vehicle: saline with Tween-80
[16] = dose: 75.0 mg/kg/injection, schedule: Q04DX003 (sc), vehicle: Klucel (hydroxypropylcellulose) (HPC)
[17] = dose: 150.0 mg/kg/injection, schedule: Q04DX003 (sc), vehicle: Klucel (hydroxypropylcellulose) (HPC)
[18] = dose: 300.0 mg/kg/injection, schedule: Q04DX003 (sc), vehicle: Klucel (hydroxypropylcellulose) (HPC)
[19] = dose: 600.0 mg/kg/injection, schedule: Q04DX003 (sc), vehicle: Klucel (hydroxypropylcellulose) (HPC)
[20] = dose: 50.0 mg/kg/injection, schedule: Q01DX010 (sc), vehicle: saline with Tween-80
[21] = dose: 25.0 mg/kg/injection, schedule: Q01DX010 (sc), vehicle: saline
[22] = dose: 200.0 mg/kg/injection, schedule: Q04DX003 (sc), vehicle: saline
[23] = dose: 400.0 mg/kg/injection, schedule: Q04DX003 (sc), vehicle: saline
[24] = dose: 800.0 mg/kg/injection, schedule: Q04DX003 (sc), vehicle: saline
[25] = dose: 1600.0 mg/kg/injection, schedule: Q04DX003 (sc), vehicle: saline

CN(C=O)C(C(=O)Nc1cccc2c(OC(=O)C(N(C)C=O)(N(C)C=O)N(C)C=O)c(N=Nc3ccc(S(=O)(=O)Nc4nccs4)cc3)cc(N=Nc3ccc(S(=O)(=O)Nc4nccs4)cc3)c12)(N(C)C=O)N(C)C=O (tested in a mixture with another compound)
T/C [1]: 109 % of control
T/C [2]: 71 % of control
T/C [3]: 120 % of control
T/C [4]: 95 % of control

COc1ccc2c(NCCCCCCCCNc3c4ccccc4nc4cc(OC)ccc34)c3ccccc3nc2c1
T/C (dose: 2.0 mg/kg/injection, schedule: Q04DX003 (sc), vehicle: suspension in saline): 96 % of control
T/C (dose: 16.0 mg/kg/injection, schedule: Q04DX003 (sc), vehicle: suspension in saline): 64 % of control

Cc1cc2nc3c(=O)[nH]c(=O)nc-3n(CC(O)C(O)C(O)C(O)CO)c2cc1C (centres undefined)
T/C [5]: 75 % of control
T/C [6]: 92 % of control
T/C [7]: 66 % of control

O=C1OC(=O)[C@H]2[C@@H]1[C@H]1C=C[C@@H]2OC1=O
T/C [8]: 90 % of control
T/C [9]: 104 % of control
T/C [10]: 72 % of control

C/C(=N\NC(N)=O)c1cccc(/C(C)=N/NC(N)=O)n1
T/C (dose: 100.0 mg/kg/injection, schedule: Q04DX003 (sc), vehicle: saline with Tween-80): 83 % of control
T/C [11]: 54 % of control
T/C [12]: 71 % of control
T/C [13]: 89 % of control

Cc1cc2c(C(C)C)c(O)c(O)c(C=O)c2c(O)c1-c1c(C)cc2c(C(C)C)c(O)c(O)c(C=O)c2c1O
T/C [14]: 85 % of control
T/C [15]: 75 % of control

CCCCCCOC(CN(C)C)C(Cl)(Cl)Cl (centres undefined)
T/C [11]: 121 % of control
T/C [12]: 95 % of control
T/C [13]: 59 % of control
T/C (dose: 1600.0 mg/kg/injection, schedule: Q04DX003 (sc), vehicle: saline with Tween-80): 74 % of control

Cc1cc(N2C(=O)CCSC2=S)ccc1Cl
T/C [16]: 60 % of control
T/C [17]: 111 % of control
T/C [18]: 62 % of control
T/C [19]: 75 % of control

N=C1CCCS1
T/C (dose: 18.75 mg/kg/injection, schedule: Q04DX003 (sc), vehicle: saline): 121 % of control
T/C (dose: 37.5 mg/kg/injection, schedule: Q04DX003 (sc), vehicle: saline): 87 % of control
T/C (dose: 75.0 mg/kg/injection, schedule: Q04DX003 (sc), vehicle: saline): 113 % of control

O=C1CN(Cc2ccc3c(c2)OCO3)NO1
T/C [15]: 63 % of control
T/C [1]: 76 % of control
T/C [2]: 63 % of control
T/C [3]: 46 % of control

COc1ccc2c(NCCCCCCNc3c4ccccc4nc4cc(OC)ccc34)c3ccccc3nc2c1
T/C (dose: 1.25 mg/kg/injection, schedule: Q01DX010 (sc), vehicle: lactic acid): 105 % of control
T/C (dose: 2.5 mg/kg/injection, schedule: Q01DX010 (sc), vehicle: lactic acid): 100 % of control
T/C (dose: 10.0 mg/kg/injection, schedule: Q01DX010 (sc), vehicle: lactic acid): 48 % of control

CCC(CC)COC(=O)c1ccccc1C(=O)OCC(CC)CC
T/C [2]: 56 % of control
T/C [3]: 71 % of control
T/C [4]: 64 % of control
T/C (dose: 2400.0 mg/kg/injection, schedule: Q04DX003 (sc), vehicle: saline with Tween-80): 73 % of control

CCCCC(=O)OCC(=O)[C@]1(O)Cc2c(O)c3c(c(O)c2[C@@H](OC2CC(NC(=O)C(F)(F)F)C(O)C(C)O2)C1)C(=O)c1c(OC)cccc1C3=O (some centres undefined)
T/C (dose: 32.0 mg/kg/injection, schedule: Q01DX010 (sc), vehicle: distilled water + Tween-80): 84 % of control
T/C (dose: 512.0 mg/kg/injection, schedule: Q01DX010 (sc), vehicle: distilled water + Tween-80): 5 % of control and 8 % of control and 26 % of control

CCCCCCCC(=O)[O][Hg][CH2]C1COC([CH2][Hg][O]C(=O)CCCCCCC)CO1 (centres undefined)
T/C (dose: 6.25 mg/kg/injection, schedule: Q01DX010 (sc), vehicle: saline with Tween-80): 224 % of control
T/C (dose: 25.0 mg/kg/injection, schedule: Q01DX010 (sc), vehicle: saline with Tween-80): 106 % of control
T/C [20]: 75 % of control and 79 % of control
T/C [5]: 61 % of control
T/C [6]: 42 % of control
T/C [7]: 24 % of control

COc1cc2c3c(cccc3c1)C(=O)N(CCN(C)C)C2=O
T/C [15]: 98 % of control
T/C [1]: 115 % of control
T/C [2]: 53 % of control
T/C [3]: 79 % of control

CCC1OCC(C(Cl)CCl)O1 (centres undefined)
T/C [18]: 115 % of control
T/C [19]: 88 % of control
T/C (dose: 1200.0 mg/kg/injection, schedule: Q04DX003 (sc), vehicle: Klucel (hydroxypropylcellulose) (HPC)): 26 % of control

Nc1ncnc2c1ncn2C1OC(CO)C(O)C1O (centres undefined)
T/C [21]: 156 % of control
T/C (dose: 50.0 mg/kg/injection, schedule: Q01DX010 (sc), vehicle: saline): 97 % of control
T/C [22]: 102 % of control
T/C [23]: 20 % of control
T/C [24]: 117 % of control
T/C [25]: 70 % of control

c1csc(C[N+]23CN4CN(CN(C4)C2)C3)c1
T/C (dose: 100.0 mg/kg/injection, schedule: Q04DX003 (sc), vehicle: saline): 112 % of control
T/C [22]: 100 % of control
T/C [23]: 92 % of control

CN(C)c1ccc(C(=C2C=CC(=[N+](C)C)C=C2)c2ccc(N(C)C)cc2)cc1 (tested in a mixture with another compound)
T/C (dose: 7.5 mg/kg/injection, schedule: Q04DX003 (sc), vehicle: saline with Tween-80): 76 % of control
T/C (dose: 15.0 mg/kg/injection, schedule: Q04DX003 (sc), vehicle: saline with Tween-80): 59 % of control
T/C (dose: 30.0 mg/kg/injection, schedule: Q04DX003 (sc), vehicle: saline with Tween-80): 98 % of control
T/C (dose: 60.0 mg/kg/injection, schedule: Q04DX003 (sc), vehicle: saline with Tween-80): 65 % of control

Cc1cn(C2CC(O)C(CO)O2)c(=O)[nH]c1=O (centres undefined)
T/C [24]: 94 % of control
T/C [25]: 70 % of control
T/C (dose: 3200.0 mg/kg/injection, schedule: Q04DX003 (sc), vehicle: saline): 71 % of control
T/C (dose: 6400.0 mg/kg/injection, schedule: Q04DX003 (sc), vehicle: saline): 61 % of control

C=C1C(=O)O[C@@H]2[C@H](O)[C@@H](C)[C@@H]3C=CC(=O)[C@@]3(C)[C@H](OC(=O)C=C(C)C)[C@H]12
T/C (dose: 9.38 mg/kg/injection, schedule: Q04DX003 (sc), vehicle: saline with Tween-80): 95 % of control
T/C (dose: 18.75 mg/kg/injection, schedule: Q04DX003 (sc), vehicle: saline with Tween-80): 101 % of control
T/C [14]: 100 % of control

CCCCn1cnc2c(=S)nc[nH]c21
T/C [8]: 69 % of control
T/C [9]: 53 % of control
T/C [10]: 61 % of control
T/C (dose: 2400.0 mg/kg/injection, schedule: Q04DX003 (sc), vehicle: suspension in saline): 57 % of control

CN1CCN(c2ccc3nc(-c4ccc5nc(-c6ccc(O)cc6)[nH]c5c4)[nH]c3c2)CC1
T/C [22]: 73 % of control
T/C [23]: 73 % of control

Nc1ncnc2c1nnn2C1OC(CO)C(O)C1O (centres undefined)
T/C (dose: 18.75 mg/kg/injection, schedule: Q04DX003 (sc), vehicle: Klucel (hydroxypropylcellulose) (HPC)): 102 % of control
T/C (dose: 37.5 mg/kg/injection, schedule: Q04DX003 (sc), vehicle: Klucel (hydroxypropylcellulose) (HPC)): 96 % of control
T/C [16]: 103 % of control
T/C [17]: 80 % of control

CC/C(=C(/CC)c1ccc(O)cc1)c1ccc(O)cc1
T/C [20]: 106 % of control
T/C [5]: 105 % of control

CCO/C=C1\SC(=S)N(c2ccccc2C)C1=O
T/C [5]: 26 % of control
T/C [6]: 64 % of control
T/C [7]: 76 % of control
T/C (dose: 800.0 mg/kg/injection, schedule: Q01DX010 (sc), vehicle: saline with Tween-80): 89 % of control

O=C1C=C(C2OC(CO)C(O)C2O)C(=O)N1 (centres undefined)
T/C (dose: 6.25 mg/kg/injection, schedule: Q01DX010 (sc), vehicle: saline): 37 % of control
T/C (dose: 12.5 mg/kg/injection, schedule: Q01DX010 (sc), vehicle: saline): 46 % of control
T/C [21]: 66 % of control
